Results as given in PMC8151276, “An Integrated Approach toward NanoBRET Tracers for Analysis of GPCR Ligand Engagement” (Molecules, 2021).

Legend:
Format in all cases: binding
[1] = molecular target: T1, CXCR5 (Homo sapiens, UniProt P32302); experiment: NanoBRET screen HiBiT-CXCR5 in HEK293
T1 construct: purchased Promega (in-house HiBiT-GPCR construct library, NanoBRET)
T1 sequence (P32302 1-372): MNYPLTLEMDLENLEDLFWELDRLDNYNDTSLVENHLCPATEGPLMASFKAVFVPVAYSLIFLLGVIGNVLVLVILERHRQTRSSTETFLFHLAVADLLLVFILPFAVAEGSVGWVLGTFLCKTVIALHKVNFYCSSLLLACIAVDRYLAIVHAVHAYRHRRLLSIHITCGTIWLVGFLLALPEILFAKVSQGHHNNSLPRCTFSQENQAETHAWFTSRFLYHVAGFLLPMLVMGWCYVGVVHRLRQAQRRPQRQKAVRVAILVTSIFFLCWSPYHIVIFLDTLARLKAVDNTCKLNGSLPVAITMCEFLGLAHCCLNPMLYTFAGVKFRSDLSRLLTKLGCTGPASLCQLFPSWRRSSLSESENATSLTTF
Method: (§1) Each tracer candidate was screened across the entire library of HiBiT-GPCR constructs using NanoBRET as the detection modality. As depicted in Figure 4A, the specificity of interactions was evaluated through decrease in BRET due to competitive displacement of a bound tracer by excess parental compound. Each tracer was analyzed for binding to each HiBiT-GPCR fusion in the absence and in the presence of competing parental compound. Briefly, HEK293 cells were transfected with HiBiT-GPCR constructs diluted into promoterless DNA to reduce expression and maximize translocation to the cell surface. Each tracer candidate was then screened at concentrations of 1 μM and 0.1 μM across cells expressing these fusions. Cells were treated for 1.5 h with tracer either alone or in the presence of 20 μM competing parental compound (i.e., control). BRET was measured upon addition of purified LgBiT and subsequent complementation with HiBiT genetically fused to a GPCR. The specificity of interactions was assessed through a decrease in BRET signal due to competitive displacement of the bound tracer. To further gauge the robustness of these interactions, the fold response over the control (i.e., BRETtracer/BRETcontrol) was calculated. We chose a 1.5-fold response, which translates to ≥7-fold signal over noise as the minimal threshold required to score an interaction as positive. […]. Below we highlight the screening results obtained for our exemplary fluorescent tracers based on Clozapine, Amitriptyline and AZD1283.
(§2) HiBiT-GPCR DNA constructs were diluted in 10 mM Tris pH 8 to a final concentration of 0.01 μg/μL, arrayed in 96-well plates and stored at −20 °C. For transfection, HEK293 cells were suspended in Opti-MEM (without phenol red) supplemented with 2% fetal bovine serum (Seradigm) and 100 units/mL penicillin–streptomycin (Gibco) at a final concentration of 220,000 cells/mL and dispensed into white 96-well plates at 90 μL/well. Subsequent transfections and screens were carried using an Agilent Bravo Automated Liquid Handling Platform. First, the 96-well HiBiT DNA arrays were diluted 25-fold in Opti-MEM (without serum or phenol red) to a final concentration of 0.0004 μg/μL and 20 μL of the diluted DNAs were transferred into new 96-well plates. Next, promoterless carrier DNA (1 μg/μL) was diluted 25-fold (0.04 μg/μL) and then dispensed into the diluted arrays at 20 μL/well. Following brief mixing, Viafect transfection reagent (Promega) diluted 16-fold into Opti-MEM was dispensed into the plates at 40 μL/well. After mixing by pipetting, plates were incubated for 10 min on the pipetting station deck. The DNA-transfection reagent complexes were then added to plates containing cells. To facilitate the screen, 10 μL of DNA-transfection reagent complexes were added in duplicates to the top 4 and bottom 4 rows, resulting in two identical 48-well arrays per plate. Plates with transfected cells were incubated for 18–20 h at 37 °C/5% CO2. A screen of each tracer across the entire library using two different concentrations requires duplicate plates of transfected cells. Depending on the number of tracers being screened, transfections can be scaled up using the same ratios. The next day, for each tracer, four 20× screening solutions in tracer dilution buffer (Promega) were prepared: two duplicates at final concentration of 20 μM and two duplicates at a final concentration of 2 μM. A competing unmodified compound was added to one of each duplicate at a final concentration of 400 μM. The four resulting solutions were diluted 4-fold in Opti-MEM without serum or phenol red to generate 5× solutions (5 µM and 0.5 µM tracer +/− 100 μM competing compound). To screen the library, a BioTek MultiFlo FX liquid dispenser was used to dispense 22.5 µL of tracer solution to the top 4 rows and 22.5 µL tracer + competing compound solution to the 4 bottom rows. Plates were briefly mixed on an orbital shaker and incubated for 1.5 h at room temperature. […]

[2] = molecular target: T2, CXCR6 (Homo sapiens, UniProt O00574); experiment: NanoBRET screen HiBiT-CXCR6 in HEK293
T2 construct: purchased Promega (in-house HiBiT-GPCR construct library, NanoBRET)
T2 sequence (O00574 whole entry): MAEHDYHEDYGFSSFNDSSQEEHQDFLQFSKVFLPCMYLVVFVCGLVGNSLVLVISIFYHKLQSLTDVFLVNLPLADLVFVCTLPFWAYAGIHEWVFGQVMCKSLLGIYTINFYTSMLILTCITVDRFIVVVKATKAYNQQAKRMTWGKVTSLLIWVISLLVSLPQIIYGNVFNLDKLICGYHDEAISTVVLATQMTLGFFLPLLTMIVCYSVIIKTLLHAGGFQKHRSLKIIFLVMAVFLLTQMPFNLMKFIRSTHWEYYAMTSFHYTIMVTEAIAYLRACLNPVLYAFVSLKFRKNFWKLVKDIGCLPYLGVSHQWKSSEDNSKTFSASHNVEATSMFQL
Method: as §1, §2

[3] = molecular target: T3, P2RY2 (Homo sapiens, UniProt P41231); experiment: NanoBRET screen HiBiT-P2RY2 in HEK293
T3 construct: purchased Promega (in-house HiBiT-GPCR construct library, NanoBRET)
T3 sequence (P41231 whole entry): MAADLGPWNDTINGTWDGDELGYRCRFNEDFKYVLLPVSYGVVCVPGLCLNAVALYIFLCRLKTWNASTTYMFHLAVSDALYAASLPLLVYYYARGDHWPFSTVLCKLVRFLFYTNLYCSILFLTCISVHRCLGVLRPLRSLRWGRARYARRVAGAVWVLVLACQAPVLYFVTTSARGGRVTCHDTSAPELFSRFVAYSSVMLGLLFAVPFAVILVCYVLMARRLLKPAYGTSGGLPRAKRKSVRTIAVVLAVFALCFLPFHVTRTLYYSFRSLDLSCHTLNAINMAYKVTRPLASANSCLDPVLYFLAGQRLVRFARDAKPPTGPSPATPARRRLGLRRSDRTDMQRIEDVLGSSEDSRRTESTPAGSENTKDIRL
Method: as §1, §2

[4] = molecular target: T4, FPR3 (Homo sapiens, UniProt P25089); experiment: NanoBRET screen HiBiT-FPR3 in HEK293
T4 construct: purchased Promega (in-house HiBiT-GPCR construct library, NanoBRET)
T4 sequence (P25089 1-353): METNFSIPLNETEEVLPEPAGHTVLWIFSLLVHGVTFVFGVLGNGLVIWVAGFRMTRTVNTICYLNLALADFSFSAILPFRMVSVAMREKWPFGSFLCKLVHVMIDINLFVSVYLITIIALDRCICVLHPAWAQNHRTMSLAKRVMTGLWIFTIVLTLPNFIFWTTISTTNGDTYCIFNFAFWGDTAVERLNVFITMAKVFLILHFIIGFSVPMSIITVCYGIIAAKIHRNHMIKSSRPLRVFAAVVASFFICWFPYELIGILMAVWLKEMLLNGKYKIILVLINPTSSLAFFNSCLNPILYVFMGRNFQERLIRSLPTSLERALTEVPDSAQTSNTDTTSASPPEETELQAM
Method: as §1, §2

[5] = molecular target: T5, RXFP3 (Homo sapiens, UniProt Q9NSD7); experiment: NanoBRET screen HiBiT-RXFP3 in HEK293
T5 construct: purchased Promega (in-house HiBiT-GPCR construct library, NanoBRET)
T5 sequence (Q9NSD7 1-469): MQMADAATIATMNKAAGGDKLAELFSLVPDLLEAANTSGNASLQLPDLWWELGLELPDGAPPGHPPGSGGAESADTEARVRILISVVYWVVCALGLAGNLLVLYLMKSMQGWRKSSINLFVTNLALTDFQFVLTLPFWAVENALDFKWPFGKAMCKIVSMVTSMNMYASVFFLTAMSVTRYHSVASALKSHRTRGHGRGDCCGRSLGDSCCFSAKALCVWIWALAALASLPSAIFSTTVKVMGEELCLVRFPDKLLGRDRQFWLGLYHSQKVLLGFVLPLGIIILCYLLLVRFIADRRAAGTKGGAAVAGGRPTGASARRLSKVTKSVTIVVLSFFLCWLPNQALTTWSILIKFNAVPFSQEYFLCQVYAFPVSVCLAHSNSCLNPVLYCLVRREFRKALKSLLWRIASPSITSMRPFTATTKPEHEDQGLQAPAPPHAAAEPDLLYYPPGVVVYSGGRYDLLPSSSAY
Method: as §1, §2

[6] = tracer at 0.1μM, listed as amitriptyline-b-2-NB590
[7] = tracer at 1μM, listed as amitriptyline-b-2-NB590

Row | Compound | NanoBRET Fold Response ([1]; CXCR5, tracer 0.1μM) | NanoBRET Fold Response ([1]; CXCR5, tracer 1μM) | NanoBRET Fold Response ([2]; CXCR6, tracer 0.1μM) | NanoBRET Fold Response ([2]; CXCR6, tracer 1μM) | NanoBRET Fold Response ([3]; P2RY2, tracer 0.1μM) | NanoBRET Fold Response ([3]; P2RY2, tracer 1μM) | NanoBRET Fold Response ([4]; FPR3, tracer 0.1μM) | NanoBRET Fold Response ([4]; FPR3, tracer 1μM) | NanoBRET Fold Response ([5]; RXFP3, tracer 0.1μM) | NanoBRET Fold Response ([5]; RXFP3, tracer 1μM) | further results
1 | O=C(CCOCCOCCOCCOCCNC(=O)CCc1ccc2n1[B-](F)(F)[N+]1=C(c3ccc[nH]3)C=CC1=C2)NCCCN1CCN(C2=Nc3ccccc3Oc3ccc(Cl)cc32)CC1 [Loxapine-a-2-NB590] | 0.29 | 0.90 | 1.00 | 1.01 | 0.99 | 1.05 | 1.02 | 1.07 | 1.11 | 1.22 | 
2 | CC(C)N(CC[C@H](c1ccccc1)c1cc(CCNC(=O)CCOCCOCCOCCOCCNC(=O)CCc2ccc3n2[B-](F)(F)[N+]2=C(c4ccc[nH]4)C=CC2=C3)ccc1O)C(C)C [Tolterodine-2-NB590] | 1.31 | 1.00 | 0.89 | 0.91 | 1.06 | 1.07 | 1.60 | 0.92 | 1.18 | 1.10 | 
3 | N#CN=C(NCCCOc1cccc(CN2CCCCC2)c1)NCCNC(=O)CCOCCOCCOCCOCCNC(=O)CCc1ccc2n1[B-](F)(F)[N+]1=C(c3ccc[nH]3)C=CC1=C2 [Aminopotentidine-2-NB590] | 1.04 | 0.99 | 1.06 | 1.03 | 1.01 | 1.00 | 1.21 | 1.13 | 1.04 | 0.97 | 
4 | CCOC(=O)c1cc(C#N)c(N2CCC(C(=O)NS(=O)(=O)Cc3ccccc3/C=C/C(=O)NCCNC(=O)CCc3ccc4n3[B-](F)(F)[N+]3=C(c5ccc[nH]5)C=CC3=C4)CC2)nc1C [AZD1283-1-NB590] |  |  |  |  |  |  |  |  |  |  | NanoBRET Fold Response ([1]; CXCR5, 0.1μM): 1.04; NanoBRET Fold Response ([1]; CXCR5, 1μM): 1.12; NanoBRET Fold Response ([2]; CXCR6, 0.1μM): 0.89; NanoBRET Fold Response ([2]; CXCR6, 1μM): 0.29; NanoBRET Fold Response ([3]; P2RY2, 0.1μM): 1.08; NanoBRET Fold Response ([3]; P2RY2, 1μM): 1.12; NanoBRET Fold Response ([4]; FPR3, 0.1μM): 1.08; NanoBRET Fold Response ([4]; FPR3, 1μM): 1.06; NanoBRET Fold Response ([5]; RXFP3, 0.1μM): 0.94; NanoBRET Fold Response ([5]; RXFP3, 1μM): 1.12
5 | CN(C)CCC=C1c2ccccc2CCc2ccc(C(=O)NCCNC(=O)CCOCCOCCOCCOCCNC(=O)CCc3ccc4n3[B-](F)(F)[N+]3=C(c5ccc[nH]5)C=CC3=C4)cc21 [Amitriptyline-b-2-NB590] |  |  |  |  |  |  |  |  |  |  | NanoBRET Fold Response [1, 6]: 1.39; NanoBRET Fold Response [1, 7]: 1.19; NanoBRET Fold Response [2, 6]: 0.95; NanoBRET Fold Response [2, 7]: 1.02; NanoBRET Fold Response [3, 6]: 1.04; NanoBRET Fold Response [3, 7]: 0.92; NanoBRET Fold Response [4, 6]: 1.27; NanoBRET Fold Response [4, 7]: 1.02; NanoBRET Fold Response [5, 6]: 0.98; NanoBRET Fold Response [5, 7]: 1.03
6 | CN(C)CCC=C1c2ccccc2CCc2ccc(C(=O)NCCNC(=O)CCOCCOCCOCCOCCNC(=O)CCc3ccc4n3[B-](F)(F)[N+]3=C(c5ccc[nH]5)C=CC3=C4)cc21 [Amitriptyline-a-2-NB590] |  |  |  |  |  |  |  |  |  |  | NanoBRET Fold Response ([1]; tracer at 0.1μM): 1.04; NanoBRET Fold Response ([1]; tracer at 1μM): 1.01; NanoBRET Fold Response ([2]; tracer at 0.1μM): 1.07; NanoBRET Fold Response ([2]; tracer at 1μM): 0.94; NanoBRET Fold Response ([3]; tracer at 0.1μM): 1.00; NanoBRET Fold Response ([3]; tracer at 1μM): 1.05; NanoBRET Fold Response ([4]; tracer at 0.1μM): 0.96; NanoBRET Fold Response ([4]; tracer at 1μM): 1.07; NanoBRET Fold Response ([5]; tracer at 0.1μM): 0.97; NanoBRET Fold Response ([5]; tracer at 1μM): 0.99
7 | O=C(CCc1ccc2n1[B-](F)(F)[N+]1=C(c3ccc[nH]3)C=CC1=C2)NCCOCCOCCNC(=O)OCCOCCN1CCN(C2=Nc3ccccc3Sc3ccccc32)CC1 [Quetiapine-a-2-NB590] | 1.01 | 0.92 | 0.98 | 1.12 | 1.07 | 0.95 | 1.28 | 0.66 | 0.88 | 0.92 | 
8 | Cc1cc2c(s1)Nc1ccccc1N=C2N1CCN(CCCNC(=O)CCOCCOCCOCCOCCNC(=O)CCc2ccc3n2[B-](F)(F)[N+]2=C(c4ccc[nH]4)C=CC2=C3)CC1 [Olanzapine-a-2-NB590] | 0.98 | 0.86 | 1.00 | 0.98 | 0.95 | 1.13 | 0.92 | 0.96 | 0.97 | 1.11 | 
